{
  "source": "patent US9062078B2",
  "about": "“Substituted 7-azabicyles and their use as orexin receptor modulators” (priority 2013, dated 2015)",
  "key": {"rat orexin 1 receptor": {"target": "rat orexin 1 receptor (Rattus norvegicus, UniProt P56718)", "assay": "Rat orexin 1 receptor radioligand binding (competitive, [3H]-SB674042, HEK293 cell preparations)"}, "human orexin 2 receptor": {"target": "human orexin 2 receptor (Homo sapiens (Human), UniProt O43614)", "sequence (O43614 whole entry)": "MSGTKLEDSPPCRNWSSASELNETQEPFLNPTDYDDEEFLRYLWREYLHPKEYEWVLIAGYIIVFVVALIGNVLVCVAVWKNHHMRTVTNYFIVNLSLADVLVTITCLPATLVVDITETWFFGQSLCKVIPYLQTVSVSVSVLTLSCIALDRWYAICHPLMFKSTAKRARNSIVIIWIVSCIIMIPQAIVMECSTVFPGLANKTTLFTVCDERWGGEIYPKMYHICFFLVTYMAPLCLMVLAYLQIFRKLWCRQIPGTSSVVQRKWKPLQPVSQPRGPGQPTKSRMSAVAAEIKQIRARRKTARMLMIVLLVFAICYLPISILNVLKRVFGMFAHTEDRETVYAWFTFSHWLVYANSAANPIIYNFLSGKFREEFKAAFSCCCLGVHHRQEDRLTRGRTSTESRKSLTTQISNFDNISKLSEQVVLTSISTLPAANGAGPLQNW", "assay": "Human orexin 2 receptor radioligand binding (competitive, [3H]-EMPA, HEK293 cell preparations)"}, "[1]": {"settings": "rat orexin 1 receptor, [3H]-SB674042 competition binding, read-out: rOX1 Ki (nm)"}, "[2]": {"settings": "human orexin 2 receptor, [3H]-EMPA competition binding, read-out: hOX2 Ki (nm)"}},
  "note": "Read-outs that look alike come from different tables or passages of the source.",
  "data": [
    {"smiles": "COc1c(F)cccc1C(=O)N1C2CCC1C(Nc1ccc(C(F)(F)F)cn1)C2", "note": "(racemic) [Example 193, (±)-((3-fluoro-2-methoxyphenyl)(2-(5-(trifluoromethyl)pyridin-2-yl)amino)-7-azabicyclo[2.2.1]heptan-7-yl)methanone]", "values": [
      {"measurement": "Ki", "setting": "rat orexin 1 receptor; [1]", "result": 2900, "unit": "nM"},
      {"measurement": "Ki", "setting": "human orexin 2 receptor; [2]", "result": "> 10000", "unit": "nM"}
    ]},
    {"smiles": "Cc1ccc(-c2ncco2)c(C(=O)N2C3CCC2C(COc2ncc(F)cn2)C3)n1", "note": "(racemic) [Example 100, (±)-(2-(((5-fluoropyrimidin-2-yl)oxy)methyl)-7-azabicyclo[2.2.1]heptan-7-yl)(6-methyl-3-(oxazol-2-yl)pyridin-2-yl)methanone]", "values": [
      {"measurement": "Ki", "setting": "rat orexin 1 receptor; [1]", "result": 950, "unit": "nM"},
      {"measurement": "Ki", "setting": "human orexin 2 receptor; [2]", "result": 1800, "unit": "nM"}
    ]},
    {"smiles": "CN(c1cnc(C(F)(F)F)cn1)[C@@H]1C[C@H]2CC[C@@H]1N2C(=O)c1cccc(F)c1-c1ncccn1", "note": "[Example 282, (3-fluoro-2-(pyrimidin-2-yl)phenyl)((1S,2R,4R)-2-(methyl(5-(trifluoromethyl)pyrazin-2-yl)amino)-7-azabicyclo[2.2.1]heptan-7-yl)methanone]", "values": [
      {"measurement": "Ki", "setting": "rat orexin 1 receptor; [1]", "result": 486, "unit": "nM"},
      {"measurement": "Ki", "setting": "human orexin 2 receptor; [2]", "result": "> 10000", "unit": "nM"}
    ]},
    {"smiles": "Cc1ccc(NC2CC3CCC2N3C(=O)c2ccccc2-n2nccn2)nc1", "note": "(racemic) [Example 214, (±)-(2-(2H-1,2,3-triazol-2-yl)phenyl)(2-(((5-methylpyridin-2-yl)amino)-7-azabicyclo[2.2.1]heptan-7-yl)methanone]", "values": [
      {"measurement": "Ki", "setting": "rat orexin 1 receptor; rOX1 Ki (nm)", "result": 500, "unit": "nM"},
      {"measurement": "Ki", "setting": "human orexin 2 receptor; hOX2 Ki (nm)", "result": 3100, "unit": "nM"}
    ]},
    {"smiles": "Cc1ccc(N2CCCC2)c(C(=O)N2C3CCC2C(COc2ncc(F)cn2)C3)n1", "note": "(racemic) [Example 101, (±)-(2-(((5-fluoropyrimidin-2-yl)oxy)methyl)-7-azabicyclo[2.2.1]heptan-7-yl)(6-methyl-3-(pyrrolidin-1-yl)pyridin-2-yl)methanone]", "values": [
      {"measurement": "Ki", "setting": "rat orexin 1 receptor; [1]", "result": 650, "unit": "nM"},
      {"measurement": "Ki", "setting": "human orexin 2 receptor; [2]", "result": 1200, "unit": "nM"}
    ]},
    {"smiles": "Cn1cc(C(=O)N2C3CCC2C(COc2ccccn2)C3)c(-c2ccccc2)n1", "note": "(racemic) [Example 78, (±)-(1-methyl-3-phenyl-1H-pyrazol-4-yl)(2-((pyridin-2-yloxy)methyl)-7-azabicyclo[2.2.1]heptan-7-yl)methanone]", "values": [
      {"measurement": "Ki", "setting": "rat orexin 1 receptor; [1]", "result": 418, "unit": "nM"},
      {"measurement": "Ki", "setting": "human orexin 2 receptor; [2]", "result": 3100, "unit": "nM"}
    ]},
    {"smiles": "O=C(c1cccc(F)c1-c1ncccn1)N1C2CCC1C(COc1ccccn1)C2", "note": "(racemic) [Example 52, (±)-(3-fluoro-2-(pyrimidin-2-yl)phenyl)(2-((pyridin-2-yloxy)methyl)-7-azabicyclo[2.2.1]heptan-7-yl)methanone]", "values": [
      {"measurement": "Ki", "setting": "rat orexin 1 receptor; [1]", "result": 350, "unit": "nM"},
      {"measurement": "Ki", "setting": "human orexin 2 receptor; hOX2 Ki (nm)", "result": 2300, "unit": "nM"}
    ]},
    {"smiles": "COC(=O)c1cnc(N[C@@H]2C[C@H]3CC[C@@H]2N3C(=O)c2cccc(F)c2-c2ncccn2)cn1", "note": "[Example 275, methyl 5-(((1S,2R,4R)-7-(3-fluoro-2-(pyrimidin-2-yl)benzoyl)-7-azabicyclo[2.2.1]heptan-2-yl)amino)pyrazine-2-carboxylate]", "values": [
      {"measurement": "Ki", "setting": "rat orexin 1 receptor; [1]", "result": "> 10000", "unit": "nM"},
      {"measurement": "Ki", "setting": "human orexin 2 receptor; [2]", "result": "> 10000", "unit": "nM"}
    ]},
    {"smiles": "Cc1ccc(-n2nccn2)c(C(=O)N2C3CCC2C(Nc2ncc(C(F)(F)F)cn2)C3)n1", "note": "(racemic) [Example 228, (±)-(6-methyl-3-(2H-1,2,3-triazol-2-yl)pyridin-2-yl)(2-((5-(trifluoromethyl)pyrimidin-2-yl)amino)-7-azabicyclo[2.2.1]heptan-7-yl)methanone]", "values": [
      {"measurement": "Ki", "setting": "rat orexin 1 receptor; rOX1 Ki (nm)", "result": "> 10000", "unit": "nM"},
      {"measurement": "Ki", "setting": "human orexin 2 receptor; [2]", "result": "> 10000", "unit": "nM"}
    ]},
    {"smiles": "Cc1ccc(-c2ncccc2C)c(C(=O)N2C3CCC2C(COc2ccc(F)cn2)C3)n1", "note": "(racemic) [Example 65, (±)-(3,6′-dimethyl-[2,3′-bipyridin]-2′-yl)(2-(((5-fluoropyridin-2-yl)oxy)methyl)-7-azabicyclo[2.2.1]heptan-7-yl)methanone]", "values": [
      {"measurement": "Ki", "setting": "rat orexin 1 receptor; rOX1 Ki (nm)", "result": 1440, "unit": "nM"},
      {"measurement": "Ki", "setting": "human orexin 2 receptor; [2]", "result": 6200, "unit": "nM"}
    ]},
    {"smiles": "COc1c(F)cccc1C(=O)N1C2CCC1C(Nc1nc(C)cc(C)n1)C2", "note": "(stereo not drawn) [Example 261, (2-((4,6-dimethylpyrimidin-2-yl)amino)-7-azabicyclo[2.2.1]heptan-7-yl)(3-fluoro-2-methoxyphenyl)methanone]", "values": [
      {"measurement": "Ki", "setting": "rat orexin 1 receptor; [1]", "result": "> 10000", "unit": "nM"},
      {"measurement": "Ki", "setting": "human orexin 2 receptor; [2]", "result": 5000, "unit": "nM"}
    ]},
    {"smiles": "CCOc1ccc(C)nc1C(=O)N1C2CCC1C(Nc1ccc(Br)cn1)C2", "note": "(racemic) [Example 219, (±)-(2-((5-bromopyridin-2-yl)amino)-7-azabicyclo[2.2.1]heptan-7-yl)(3-ethoxy-6-methylpyridin-2-yl)methanone]", "values": [
      {"measurement": "Ki", "setting": "rat orexin 1 receptor; [1]", "result": 257, "unit": "nM"},
      {"measurement": "Ki", "setting": "human orexin 2 receptor; [2]", "result": 1700, "unit": "nM"}
    ]}
  ]
}
